Assay results reported in the kinase profiling compilation of Christmann-Franck et al. (2016).

Assays:
Assay in all cases: radiometric filter-binding kinase assay
[1] = biological target: AURKA (human) (UniProt O14965)
[2] = biological target: BRSK1 (human) (UniProt Q8TDC3)
[3] = biological target: BRSK2 (human) (UniProt Q8IWQ3)
[4] = biological target: CDK2 CCNA2 (human) (UniProt P20248+P24941)
[5] = biological target: CLK2 (human) (UniProt P49760)
[6] = biological target: CSK (human) (UniProt P41240)
[7] = biological target: CSNK1D (human) (UniProt P48730)
[8] = biological target: EPHA4 (human) (UniProt P54764)
[9] = biological target: EPHB2 (human) (UniProt P29323)
[10] = biological target: FGFR1 (human) (UniProt P11362)
[11] = biological target: FLT1 (human) (UniProt P17948)
[12] = biological target: INSR (human) (UniProt P06213)
[13] = biological target: INSRR (human) (UniProt P14616)
Sequence of INSRR (human) (P14616 whole entry, looked up): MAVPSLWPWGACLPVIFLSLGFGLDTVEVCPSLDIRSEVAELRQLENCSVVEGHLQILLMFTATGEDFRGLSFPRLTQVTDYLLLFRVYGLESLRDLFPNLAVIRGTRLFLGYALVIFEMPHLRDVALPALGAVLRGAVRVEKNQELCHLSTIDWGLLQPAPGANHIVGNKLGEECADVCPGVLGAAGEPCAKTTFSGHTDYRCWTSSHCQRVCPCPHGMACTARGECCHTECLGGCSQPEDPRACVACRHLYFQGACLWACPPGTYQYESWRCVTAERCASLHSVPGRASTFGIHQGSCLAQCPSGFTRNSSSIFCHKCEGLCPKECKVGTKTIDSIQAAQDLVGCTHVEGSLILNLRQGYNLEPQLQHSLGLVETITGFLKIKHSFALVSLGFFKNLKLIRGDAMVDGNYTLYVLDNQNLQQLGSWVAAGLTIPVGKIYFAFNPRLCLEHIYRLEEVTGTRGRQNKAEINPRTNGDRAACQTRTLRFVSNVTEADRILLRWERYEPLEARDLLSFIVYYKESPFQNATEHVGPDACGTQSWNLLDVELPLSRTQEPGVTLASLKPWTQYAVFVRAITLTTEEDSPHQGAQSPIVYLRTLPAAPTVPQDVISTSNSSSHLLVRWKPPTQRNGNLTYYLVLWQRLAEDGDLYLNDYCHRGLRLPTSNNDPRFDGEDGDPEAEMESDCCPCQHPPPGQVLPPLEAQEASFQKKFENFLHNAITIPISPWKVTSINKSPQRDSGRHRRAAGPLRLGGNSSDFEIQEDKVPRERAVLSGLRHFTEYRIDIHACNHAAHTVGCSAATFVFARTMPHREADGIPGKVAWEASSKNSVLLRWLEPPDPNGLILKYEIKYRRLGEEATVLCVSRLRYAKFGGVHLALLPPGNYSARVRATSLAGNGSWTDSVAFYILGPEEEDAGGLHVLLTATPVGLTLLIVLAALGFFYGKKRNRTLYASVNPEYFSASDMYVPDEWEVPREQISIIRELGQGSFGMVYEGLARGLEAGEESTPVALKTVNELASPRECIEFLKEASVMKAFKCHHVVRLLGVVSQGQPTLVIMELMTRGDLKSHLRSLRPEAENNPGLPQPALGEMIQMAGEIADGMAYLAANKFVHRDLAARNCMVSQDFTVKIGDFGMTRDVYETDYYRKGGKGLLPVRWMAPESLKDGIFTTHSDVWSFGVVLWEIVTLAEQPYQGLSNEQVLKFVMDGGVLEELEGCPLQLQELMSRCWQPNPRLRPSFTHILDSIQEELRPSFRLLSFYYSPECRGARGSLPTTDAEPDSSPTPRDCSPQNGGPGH

[14] = biological target: IRAK4 (human) (UniProt Q9NWZ3)
Sequence of IRAK4 (human) (Q9NWZ3 whole entry, looked up): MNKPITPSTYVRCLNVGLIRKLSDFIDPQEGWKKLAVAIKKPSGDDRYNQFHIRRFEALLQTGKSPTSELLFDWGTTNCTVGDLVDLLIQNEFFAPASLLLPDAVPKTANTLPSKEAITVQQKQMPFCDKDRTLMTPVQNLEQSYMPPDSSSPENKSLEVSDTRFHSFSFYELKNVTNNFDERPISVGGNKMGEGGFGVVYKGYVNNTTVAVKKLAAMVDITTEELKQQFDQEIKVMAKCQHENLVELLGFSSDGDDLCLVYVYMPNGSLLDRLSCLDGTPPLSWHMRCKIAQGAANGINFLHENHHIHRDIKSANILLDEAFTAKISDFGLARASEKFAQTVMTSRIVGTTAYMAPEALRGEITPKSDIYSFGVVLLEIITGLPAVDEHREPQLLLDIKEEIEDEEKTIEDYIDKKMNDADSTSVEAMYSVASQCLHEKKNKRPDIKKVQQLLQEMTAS

[15] = biological target: JAK2 JH1 JH2 (human) (UniProt O60674)
Sequence of JAK2 JH1 JH2 (human) (O60674 whole entry, looked up): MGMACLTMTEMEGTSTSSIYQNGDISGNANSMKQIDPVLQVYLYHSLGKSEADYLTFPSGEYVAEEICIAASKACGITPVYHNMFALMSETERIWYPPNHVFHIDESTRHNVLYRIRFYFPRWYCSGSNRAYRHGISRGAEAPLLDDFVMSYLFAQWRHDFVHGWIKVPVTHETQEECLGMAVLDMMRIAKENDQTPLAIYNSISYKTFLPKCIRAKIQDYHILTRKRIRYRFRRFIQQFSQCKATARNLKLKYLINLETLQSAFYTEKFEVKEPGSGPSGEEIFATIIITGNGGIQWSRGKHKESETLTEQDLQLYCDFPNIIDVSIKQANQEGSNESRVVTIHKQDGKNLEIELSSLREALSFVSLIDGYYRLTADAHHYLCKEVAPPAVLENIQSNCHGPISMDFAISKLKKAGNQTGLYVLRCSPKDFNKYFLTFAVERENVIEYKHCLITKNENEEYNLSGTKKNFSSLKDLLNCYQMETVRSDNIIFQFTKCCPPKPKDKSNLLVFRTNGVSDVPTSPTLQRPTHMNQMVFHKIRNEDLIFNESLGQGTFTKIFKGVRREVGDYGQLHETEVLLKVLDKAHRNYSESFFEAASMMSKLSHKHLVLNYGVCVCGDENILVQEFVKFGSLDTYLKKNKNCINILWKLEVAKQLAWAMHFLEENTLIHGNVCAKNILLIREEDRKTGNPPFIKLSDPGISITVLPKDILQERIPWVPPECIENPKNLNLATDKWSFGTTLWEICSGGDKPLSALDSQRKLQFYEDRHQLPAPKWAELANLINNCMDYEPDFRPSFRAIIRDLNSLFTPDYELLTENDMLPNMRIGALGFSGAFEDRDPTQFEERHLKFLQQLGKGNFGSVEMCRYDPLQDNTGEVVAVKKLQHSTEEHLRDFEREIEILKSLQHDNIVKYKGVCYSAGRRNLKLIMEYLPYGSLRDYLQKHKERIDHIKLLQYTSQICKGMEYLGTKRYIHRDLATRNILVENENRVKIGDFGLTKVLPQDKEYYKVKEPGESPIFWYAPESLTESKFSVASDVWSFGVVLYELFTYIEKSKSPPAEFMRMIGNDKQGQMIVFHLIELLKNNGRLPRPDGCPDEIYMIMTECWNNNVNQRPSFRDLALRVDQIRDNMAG

[16] = biological target: MAP2K2 (human) (UniProt P36507)
[17] = biological target: MAP3K11 (human) (UniProt Q16584)
[18] = biological target: MAP3K7 TAB1 (human) (UniProt Q15750+O43318)
[19] = biological target: MAPK12 (human) (UniProt P53778)
[20] = biological target: MAPK8 (human) (UniProt P45983)
[21] = biological target: MAPKAPK3 (human) (UniProt Q16644)
[22] = biological target: MARK4 (human) (UniProt Q96L34)
[23] = biological target: MELK (human) (UniProt Q14680)
[24] = biological target: MYLK (human) (UniProt Q15746)
[25] = test system: PAK2 (human), Q13177 [T402E]
Sequence of PAK2 (human), Q13177 [T402E] (Q13177 whole entry T402E, looked up): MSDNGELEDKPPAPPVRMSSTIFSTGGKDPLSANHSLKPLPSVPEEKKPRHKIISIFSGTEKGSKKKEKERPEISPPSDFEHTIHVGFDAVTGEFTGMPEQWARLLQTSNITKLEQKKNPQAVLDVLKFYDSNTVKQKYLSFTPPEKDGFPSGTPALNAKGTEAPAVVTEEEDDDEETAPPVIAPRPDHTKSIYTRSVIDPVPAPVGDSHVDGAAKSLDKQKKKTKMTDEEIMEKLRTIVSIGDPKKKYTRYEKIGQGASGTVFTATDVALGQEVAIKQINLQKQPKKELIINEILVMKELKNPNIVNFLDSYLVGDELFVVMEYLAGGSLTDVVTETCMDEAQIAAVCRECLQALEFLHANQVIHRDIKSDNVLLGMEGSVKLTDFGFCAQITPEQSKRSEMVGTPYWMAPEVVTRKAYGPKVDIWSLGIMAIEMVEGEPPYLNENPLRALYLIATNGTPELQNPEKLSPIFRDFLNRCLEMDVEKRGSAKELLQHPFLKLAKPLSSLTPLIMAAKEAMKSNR

[26] = biological target: PIM1 (human) (UniProt P11309)
[27] = biological target: PIM3 (human) (UniProt Q86V86)
[28] = biological target: PLK1 (human) (UniProt P53350)
Sequence of PLK1 (human) (P53350 whole entry, looked up): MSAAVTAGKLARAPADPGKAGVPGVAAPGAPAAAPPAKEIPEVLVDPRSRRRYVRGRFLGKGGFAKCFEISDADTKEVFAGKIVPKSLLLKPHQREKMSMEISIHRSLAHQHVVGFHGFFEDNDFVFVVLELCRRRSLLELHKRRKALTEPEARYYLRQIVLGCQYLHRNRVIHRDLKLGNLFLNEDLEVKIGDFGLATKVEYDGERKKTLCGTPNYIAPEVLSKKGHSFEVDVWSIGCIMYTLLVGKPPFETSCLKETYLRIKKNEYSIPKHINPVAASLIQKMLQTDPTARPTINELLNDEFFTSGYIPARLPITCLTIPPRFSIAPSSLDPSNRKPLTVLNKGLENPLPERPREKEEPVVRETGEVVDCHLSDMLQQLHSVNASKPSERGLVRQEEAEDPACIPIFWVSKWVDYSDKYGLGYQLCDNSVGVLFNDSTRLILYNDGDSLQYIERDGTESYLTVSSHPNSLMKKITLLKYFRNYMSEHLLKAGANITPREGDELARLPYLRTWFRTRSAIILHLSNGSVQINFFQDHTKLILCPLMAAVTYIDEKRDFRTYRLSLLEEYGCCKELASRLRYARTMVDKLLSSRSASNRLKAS

[29] = biological target: RIPK2 (human) (UniProt O43353)
Sequence of RIPK2 (human) (O43353 whole entry, looked up): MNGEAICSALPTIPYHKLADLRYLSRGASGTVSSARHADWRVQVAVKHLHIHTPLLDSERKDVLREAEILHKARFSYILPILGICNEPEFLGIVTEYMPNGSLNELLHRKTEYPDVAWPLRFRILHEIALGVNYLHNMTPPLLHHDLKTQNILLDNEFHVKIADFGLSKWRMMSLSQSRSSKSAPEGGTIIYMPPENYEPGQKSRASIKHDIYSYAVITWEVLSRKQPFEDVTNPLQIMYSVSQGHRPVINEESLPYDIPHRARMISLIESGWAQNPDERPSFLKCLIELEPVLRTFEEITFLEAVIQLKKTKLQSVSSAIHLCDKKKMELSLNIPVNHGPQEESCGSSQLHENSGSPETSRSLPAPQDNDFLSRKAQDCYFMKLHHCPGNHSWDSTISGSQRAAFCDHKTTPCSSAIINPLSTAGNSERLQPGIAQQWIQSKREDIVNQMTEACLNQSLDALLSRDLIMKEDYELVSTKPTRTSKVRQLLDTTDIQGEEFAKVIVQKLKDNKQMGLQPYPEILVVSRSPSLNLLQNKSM

[30] = biological target: RPS6KA3 KD1 KD2 (human) (UniProt P51812)
[31] = test system: RPS6KB1 (human), P23443 [T412E]
[32] = test system: SGK1 (human), O00141 [S422D]
[33] = biological target: SYK (human) (UniProt P43405)
[34] = biological target: TBK1 (human) (UniProt Q9UHD2)
[35] = biological target: TTK (human) (UniProt P33981)

Sequence of CLK2 (human) (P49760 whole entry, looked up): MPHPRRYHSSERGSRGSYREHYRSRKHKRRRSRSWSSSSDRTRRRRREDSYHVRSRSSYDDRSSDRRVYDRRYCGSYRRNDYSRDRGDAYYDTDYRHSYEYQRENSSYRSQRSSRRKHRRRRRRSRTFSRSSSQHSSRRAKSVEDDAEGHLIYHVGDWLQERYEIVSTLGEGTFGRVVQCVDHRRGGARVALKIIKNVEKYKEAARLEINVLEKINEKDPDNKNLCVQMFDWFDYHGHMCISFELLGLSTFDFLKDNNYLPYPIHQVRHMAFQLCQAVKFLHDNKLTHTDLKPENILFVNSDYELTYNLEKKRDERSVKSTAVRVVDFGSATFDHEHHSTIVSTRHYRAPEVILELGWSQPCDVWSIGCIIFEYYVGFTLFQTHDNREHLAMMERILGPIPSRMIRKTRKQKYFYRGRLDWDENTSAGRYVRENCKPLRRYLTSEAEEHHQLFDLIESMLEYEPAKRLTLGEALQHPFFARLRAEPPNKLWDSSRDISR

## FC(F)(F)c1ccc(-c2ccc(Oc3cncc4sc(-c5nn[nH]n5)cc34)cc2)cc1
[1]; compound 1.0 µM
  residual activity: 108%
[1]; compound 10.0 µM
  residual activity: 63%
[2]; compound 1.0 µM
  residual activity: 138%
[2]; compound 10.0 µM
  residual activity: 104%
[3]; compound 1.0 µM
  residual activity: 115%
[3]; compound 10.0 µM
  residual activity: 105%
[4]; compound 1.0 µM
  residual activity: 79%
[4]; compound 10.0 µM
  residual activity: 47%
[5]; compound 1.0 µM
  residual activity: 73%
[5]; compound 10.0 µM
  residual activity: 14%
[6]; compound 1.0 µM
  residual activity: 100%
[6]; compound 10.0 µM
  residual activity: 95%
[7]; compound 1.0 µM
  residual activity: 86%
[7]; compound 10.0 µM
  residual activity: 41%
[8]; compound 1.0 µM
  residual activity: 109%
[8]; compound 10.0 µM
  residual activity: 106%
[9]; compound 1.0 µM
  residual activity: 111%
[9]; compound 10.0 µM
  residual activity: 120%
[10]; compound 1.0 µM
  residual activity: 102%
[10]; compound 10.0 µM
  residual activity: 76%
[11]; compound 1.0 µM
  residual activity: 96%
[11]; compound 10.0 µM
  residual activity: 29%
[12]; compound 1.0 µM
  residual activity: 100%
[12]; compound 10.0 µM
  residual activity: 91%
[13]; compound 1.0 µM
  residual activity: 67%
[13]; compound 10.0 µM
  residual activity: 27%
[14]; compound 1.0 µM
  residual activity: 90%
[14]; compound 10.0 µM
  residual activity: 88%
[15]; compound 1.0 µM
  residual activity: 99%
[15]; compound 10.0 µM
  residual activity: 46%
[16]; compound 1.0 µM
  residual activity: 87%
[16]; compound 10.0 µM
  residual activity: 70%
[17]; compound 1.0 µM
  residual activity: 91%
[17]; compound 10.0 µM
  residual activity: 61%
[18]; compound 1.0 µM
  residual activity: 104%
[18]; compound 10.0 µM
  residual activity: 67%
[19]; compound 1.0 µM
  residual activity: 91%
[19]; compound 10.0 µM
  residual activity: 73%
[20]; compound 1.0 µM
  residual activity: 103%
[20]; compound 10.0 µM
  residual activity: 101%
[21]; compound 1.0 µM
  residual activity: 109%
[21]; compound 10.0 µM
  residual activity: 95%
[22]; compound 1.0 µM
  residual activity: 106%
[22]; compound 10.0 µM
  residual activity: 97%
[23]; compound 1.0 µM
  residual activity: 81%
[23]; compound 10.0 µM
  residual activity: 19%
[24]; compound 1.0 µM
  residual activity: 94%
[24]; compound 10.0 µM
  residual activity: 42%
[25]; compound 1.0 µM
  residual activity: 109%
[25]; compound 10.0 µM
  residual activity: 101%
[26]; compound 1.0 µM
  residual activity: 70%
[26]; compound 10.0 µM
  residual activity: 17%
[27]; compound 1.0 µM
  residual activity: 74%
[27]; compound 10.0 µM
  residual activity: 31%
[28]; compound 1.0 µM
  residual activity: 83%
[28]; compound 10.0 µM
  residual activity: 16%
[29]; compound 1.0 µM
  residual activity: 83%
[29]; compound 10.0 µM
  residual activity: 30%
[30]; compound 1.0 µM
  residual activity: 132%
[30]; compound 10.0 µM
  residual activity: 88%
[31]; compound 1.0 µM
  residual activity: 98%
[31]; compound 10.0 µM
  residual activity: 50%
[32]; compound 1.0 µM
  residual activity: 93%
[32]; compound 10.0 µM
  residual activity: 39%
[33]; compound 1.0 µM
  residual activity: 114%
[33]; compound 10.0 µM
  residual activity: 102%
[34]; compound 1.0 µM
  residual activity: 109%
[34]; compound 10.0 µM
  residual activity: 63%
[35]; compound 1.0 µM
  residual activity: 83%
[35]; compound 10.0 µM
  residual activity: 63%
